Measured values: patent publication US8680012B2, “4-phenyl-pyrane-3,5-diones,4-phenyl-thiopyrane-3,6-diones and cyclohexanetriones as novel herbicides” (Syngenta Crop Protection LLC, priority 2006, dated 2014)

system: Echinochloa crus-galli (ECHCG); assay: Example B post-emergence herbicidal activity, glasshouse pot test; assay type: in vivo; details: 312 h, rate 1000 g/ha, evaluated after 13 days, read-out: Post-emergence activity ECHCG (100=total damage to plant; 0=no damage to plant)
Method in brief: (§1)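 Herbicidal effect was judged 13 days after treatment as percent-style damage (100 = total kill). Seeds in standard soil had grown 1 day (pre) or 8 days (post) in a 24/16 °C, 14 h light, 65% humidity glasshouse before spraying with compound in acetone/water (50:50) containing 0.5% Tween 20.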

| Compound | pest or weed control at 1000 g/ha [%] |
| --- | --- |
| Cc1ccc(-c2ccc(C(C)(C)C)cc2)cc1C1=C(O)C(C)(C)OC(C)(C)C1=O [Compound A-21] | 90 |
| Cc1ccc(-c2cccc(C#N)c2)cc1C1=C(O)C(C)(C)OC(C)(C)C1=O [Compound A-22] | 80 |
| Cc1ccc(-c2ccc(F)c(F)c2)cc1C1=C(O)C(C)(C)OC(C)(C)C1=O [Compound A-24] | 100 |
| Cc1ccc(-c2cc(F)cc(F)c2)cc1C1=C(O)C(C)(C)OC(C)(C)C1=O [Compound A-25] | 90 |
| Cc1ccc(-c2ccc(F)cc2F)cc1C1=C(O)C(C)(C)OC(C)(C)C1=O [Compound A-27] | 100 |
| Cc1ccc(-c2cc(F)c(F)c(F)c2)cc1C1=C(O)C(C)(C)OC(C)(C)C1=O [Compound A-31] | 100 |

system: Amaranthus retroflexus (AMARE); assay: as above; assay type: in vivo; details: 312 h, rate 1000 g/ha, evaluated after 13 days, read-out: Post-emergence activity AMARE (100=total damage to plant; 0=no damage to plant)
Method in brief: as §1

| Compound | pest or weed control at 1000 g/ha [%] |
| --- | --- |
| Cc1ccc(-c2ccc(C(C)(C)C)cc2)cc1C1=C(O)C(C)(C)OC(C)(C)C1=O [Compound A-21] | 20 |
| Cc1ccc(-c2cccc(C#N)c2)cc1C1=C(O)C(C)(C)OC(C)(C)C1=O [Compound A-22] | 0 |
| Cc1ccc(-c2ccc(F)c(F)c2)cc1C1=C(O)C(C)(C)OC(C)(C)C1=O [Compound A-24] | 90 |
| Cc1ccc(-c2cc(F)cc(F)c2)cc1C1=C(O)C(C)(C)OC(C)(C)C1=O [Compound A-25] | 100 |
| Cc1ccc(-c2ccc(F)cc2F)cc1C1=C(O)C(C)(C)OC(C)(C)C1=O [Compound A-27] | 100 |
| Cc1ccc(-c2cc(F)c(F)c(F)c2)cc1C1=C(O)C(C)(C)OC(C)(C)C1=O [Compound A-31] | 0 |

system: Solanum nigrum (SOLNI); assay: as above; assay type: in vivo; details: 312 h, rate 1000 g/ha, evaluated after 13 days, read-out: Post-emergence activity SOLNI (100=total damage to plant; 0=no damage to plant)
Method in brief: as §1

| Compound | pest or weed control at 1000 g/ha [%] |
| --- | --- |
| Cc1ccc(-c2ccc(C(C)(C)C)cc2)cc1C1=C(O)C(C)(C)OC(C)(C)C1=O [Compound A-21] | 20 |
| Cc1ccc(-c2cccc(C#N)c2)cc1C1=C(O)C(C)(C)OC(C)(C)C1=O [Compound A-22] | 90 |
| Cc1ccc(-c2ccc(F)c(F)c2)cc1C1=C(O)C(C)(C)OC(C)(C)C1=O [Compound A-24] | 70 |
| Cc1ccc(-c2cc(F)cc(F)c2)cc1C1=C(O)C(C)(C)OC(C)(C)C1=O [Compound A-25] | 70 |
| Cc1ccc(-c2ccc(F)cc2F)cc1C1=C(O)C(C)(C)OC(C)(C)C1=O [Compound A-27] | 50 |
| Cc1ccc(-c2cc(F)c(F)c(F)c2)cc1C1=C(O)C(C)(C)OC(C)(C)C1=O [Compound A-31] | 60 |

system: Alopecurus myosuroides (ALOMY); assay: as above; assay type: in vivo; details: 312 h, rate 1000 g/ha, evaluated after 13 days, read-out: Post-emergence activity ALOMY (100=total damage to plant; 0=no damage to plant)
Method in brief: as §1

| Compound | pest or weed control at 1000 g/ha [%] |
| --- | --- |
| Cc1ccc(-c2ccc(C(C)(C)C)cc2)cc1C1=C(O)C(C)(C)OC(C)(C)C1=O [Compound A-21] | 40 |
| Cc1ccc(-c2cccc(C#N)c2)cc1C1=C(O)C(C)(C)OC(C)(C)C1=O [Compound A-22] | 30 |
| Cc1ccc(-c2ccc(F)c(F)c2)cc1C1=C(O)C(C)(C)OC(C)(C)C1=O [Compound A-24] | 100 |
| Cc1ccc(-c2cc(F)cc(F)c2)cc1C1=C(O)C(C)(C)OC(C)(C)C1=O [Compound A-25] | 70 |
| Cc1ccc(-c2ccc(F)cc2F)cc1C1=C(O)C(C)(C)OC(C)(C)C1=O [Compound A-27] | 80 |
| Cc1ccc(-c2cc(F)c(F)c(F)c2)cc1C1=C(O)C(C)(C)OC(C)(C)C1=O [Compound A-31] | 100 |

system: Setaria faberi (SETFA); assay: as above; assay type: in vivo; details: 312 h, rate 1000 g/ha, evaluated after 13 days, read-out: Post-emergence activity SETFA (100=total damage to plant; 0=no damage to plant)
Method in brief: as §1

| Compound | pest or weed control at 1000 g/ha [%] |
| --- | --- |
| Cc1ccc(-c2ccc(C(C)(C)C)cc2)cc1C1=C(O)C(C)(C)OC(C)(C)C1=O [Compound A-21] | 60 |
| Cc1ccc(-c2cccc(C#N)c2)cc1C1=C(O)C(C)(C)OC(C)(C)C1=O [Compound A-22] | 20 |
| Cc1ccc(-c2ccc(F)c(F)c2)cc1C1=C(O)C(C)(C)OC(C)(C)C1=O [Compound A-24] | 100 |
| Cc1ccc(-c2cc(F)cc(F)c2)cc1C1=C(O)C(C)(C)OC(C)(C)C1=O [Compound A-25] | 70 |
| Cc1ccc(-c2ccc(F)cc2F)cc1C1=C(O)C(C)(C)OC(C)(C)C1=O [Compound A-27] | 100 |
| Cc1ccc(-c2cc(F)c(F)c(F)c2)cc1C1=C(O)C(C)(C)OC(C)(C)C1=O [Compound A-31] | 100 |

system: Avena fatua (AVEFA); assay: as above; assay type: in vivo; details: 312 h, rate 1000 g/ha, evaluated after 13 days, read-out: Post-emergence activity AVEFA (100=total damage to plant; 0=no damage to plant)
Method in brief: as §1

| Compound | pest or weed control at 1000 g/ha [%] |
| --- | --- |
| Cc1ccc(-c2ccc(C(C)(C)C)cc2)cc1C1=C(O)C(C)(C)OC(C)(C)C1=O [Compound A-21] | 60 |
| Cc1ccc(-c2cccc(C#N)c2)cc1C1=C(O)C(C)(C)OC(C)(C)C1=O [Compound A-22] | 0 |
| Cc1ccc(-c2ccc(F)c(F)c2)cc1C1=C(O)C(C)(C)OC(C)(C)C1=O [Compound A-24] | 80 |
| Cc1ccc(-c2cc(F)cc(F)c2)cc1C1=C(O)C(C)(C)OC(C)(C)C1=O [Compound A-25] | 0 |
| Cc1ccc(-c2ccc(F)cc2F)cc1C1=C(O)C(C)(C)OC(C)(C)C1=O [Compound A-27] | 80 |
| Cc1ccc(-c2cc(F)c(F)c(F)c2)cc1C1=C(O)C(C)(C)OC(C)(C)C1=O [Compound A-31] | 90 |

system: Echinochloa crus-galli (ECHCG); assay: Example B pre-emergence herbicidal activity, glasshouse pot test; assay type: in vivo; details: 312 h, rate 1000 g/ha, evaluated after 13 days, read-out: Pre-emergence activity ECHCG (100=total damage to plant; 0=no damage to plant)
Method in brief: as §1

| Compound | pest or weed control at 1000 g/ha [%] |
| --- | --- |
| Cc1ccc(-c2ccc(C(C)(C)C)cc2)cc1C1=C(O)C(C)(C)OC(C)(C)C1=O [Compound A-21] | 90 |
| Cc1ccc(-c2cccc(C#N)c2)cc1C1=C(O)C(C)(C)OC(C)(C)C1=O [Compound A-22] | 90 |
| Cc1ccc(-c2ccc(F)c(F)c2)cc1C1=C(O)C(C)(C)OC(C)(C)C1=O [Compound A-24] | 100 |
| Cc1ccc(-c2cc(F)cc(F)c2)cc1C1=C(O)C(C)(C)OC(C)(C)C1=O [Compound A-25] | 80 |
| Cc1ccc(-c2ccc(F)cc2F)cc1C1=C(O)C(C)(C)OC(C)(C)C1=O [Compound A-27] | 100 |
| Cc1ccc(-c2cc(F)c(F)c(F)c2)cc1C1=C(O)C(C)(C)OC(C)(C)C1=O [Compound A-31] | 100 |

system: Amaranthus retroflexus (AMARE); assay: as above; assay type: in vivo; details: 312 h, rate 1000 g/ha, evaluated after 13 days, read-out: Pre-emergence activity AMARE (100=total damage to plant; 0=no damage to plant)
Method in brief: as §1

| Compound | pest or weed control at 1000 g/ha [%] |
| --- | --- |
| Cc1ccc(-c2ccc(C(C)(C)C)cc2)cc1C1=C(O)C(C)(C)OC(C)(C)C1=O [Compound A-21] | 60 |
| Cc1ccc(-c2cccc(C#N)c2)cc1C1=C(O)C(C)(C)OC(C)(C)C1=O [Compound A-22] | 30 |
| Cc1ccc(-c2ccc(F)c(F)c2)cc1C1=C(O)C(C)(C)OC(C)(C)C1=O [Compound A-24] | 20 |
| Cc1ccc(-c2cc(F)cc(F)c2)cc1C1=C(O)C(C)(C)OC(C)(C)C1=O [Compound A-25] | 0 |
| Cc1ccc(-c2ccc(F)cc2F)cc1C1=C(O)C(C)(C)OC(C)(C)C1=O [Compound A-27] | 10 |
| Cc1ccc(-c2cc(F)c(F)c(F)c2)cc1C1=C(O)C(C)(C)OC(C)(C)C1=O [Compound A-31] | 0 |

system: Solanum nigrum (SOLNI); assay: as above; assay type: in vivo; details: 312 h, rate 1000 g/ha, evaluated after 13 days, read-out: Pre-emergence activity SOLNI (100=total damage to plant; 0=no damage to plant)
Method in brief: as §1

| Compound | pest or weed control at 1000 g/ha [%] |
| --- | --- |
| Cc1ccc(-c2ccc(C(C)(C)C)cc2)cc1C1=C(O)C(C)(C)OC(C)(C)C1=O [Compound A-21] | 50 |
| Cc1ccc(-c2cccc(C#N)c2)cc1C1=C(O)C(C)(C)OC(C)(C)C1=O [Compound A-22] | 60 |
| Cc1ccc(-c2ccc(F)c(F)c2)cc1C1=C(O)C(C)(C)OC(C)(C)C1=O [Compound A-24] | 20 |
| Cc1ccc(-c2cc(F)cc(F)c2)cc1C1=C(O)C(C)(C)OC(C)(C)C1=O [Compound A-25] | 0 |
| Cc1ccc(-c2ccc(F)cc2F)cc1C1=C(O)C(C)(C)OC(C)(C)C1=O [Compound A-27] | 20 |
| Cc1ccc(-c2cc(F)c(F)c(F)c2)cc1C1=C(O)C(C)(C)OC(C)(C)C1=O [Compound A-31] | 0 |

system: Alopecurus myosuroides (ALOMY); assay: as above; assay type: in vivo; details: 312 h, rate 1000 g/ha, evaluated after 13 days, read-out: Pre-emergence activity ALOMY (100=total damage to plant; 0=no damage to plant)
Method in brief: as §1

| Compound | pest or weed control at 1000 g/ha [%] |
| --- | --- |
| Cc1ccc(-c2ccc(C(C)(C)C)cc2)cc1C1=C(O)C(C)(C)OC(C)(C)C1=O [Compound A-21] | 100 |
| Cc1ccc(-c2cccc(C#N)c2)cc1C1=C(O)C(C)(C)OC(C)(C)C1=O [Compound A-22] | 40 |
| Cc1ccc(-c2ccc(F)c(F)c2)cc1C1=C(O)C(C)(C)OC(C)(C)C1=O [Compound A-24] | 80 |
| Cc1ccc(-c2cc(F)cc(F)c2)cc1C1=C(O)C(C)(C)OC(C)(C)C1=O [Compound A-25] | 70 |
| Cc1ccc(-c2ccc(F)cc2F)cc1C1=C(O)C(C)(C)OC(C)(C)C1=O [Compound A-27] | 80 |
| Cc1ccc(-c2cc(F)c(F)c(F)c2)cc1C1=C(O)C(C)(C)OC(C)(C)C1=O [Compound A-31] | 50 |

system: Setaria faberi (SETFA); assay: as above; assay type: in vivo; details: 312 h, rate 1000 g/ha, evaluated after 13 days, read-out: Pre-emergence activity SETFA (100=total damage to plant; 0=no damage to plant)
Method in brief: as §1

| Compound | pest or weed control at 1000 g/ha [%] |
| --- | --- |
| Cc1ccc(-c2ccc(C(C)(C)C)cc2)cc1C1=C(O)C(C)(C)OC(C)(C)C1=O [Compound A-21] | 100 |
| Cc1ccc(-c2cccc(C#N)c2)cc1C1=C(O)C(C)(C)OC(C)(C)C1=O [Compound A-22] | 40 |
| Cc1ccc(-c2ccc(F)c(F)c2)cc1C1=C(O)C(C)(C)OC(C)(C)C1=O [Compound A-24] | 90 |
| Cc1ccc(-c2cc(F)cc(F)c2)cc1C1=C(O)C(C)(C)OC(C)(C)C1=O [Compound A-25] | 20 |
| Cc1ccc(-c2ccc(F)cc2F)cc1C1=C(O)C(C)(C)OC(C)(C)C1=O [Compound A-27] | 90 |
| Cc1ccc(-c2cc(F)c(F)c(F)c2)cc1C1=C(O)C(C)(C)OC(C)(C)C1=O [Compound A-31] | 100 |

system: Avena fatua (AVEFA); assay: as above; assay type: in vivo; details: 312 h, rate 1000 g/ha, evaluated after 13 days, read-out: Pre-emergence activity AVEFA (100=total damage to plant; 0=no damage to plant)
Method in brief: as §1

| Compound | pest or weed control at 1000 g/ha [%] |
| --- | --- |
| Cc1ccc(-c2ccc(C(C)(C)C)cc2)cc1C1=C(O)C(C)(C)OC(C)(C)C1=O [Compound A-21] | 50 |
| Cc1ccc(-c2cccc(C#N)c2)cc1C1=C(O)C(C)(C)OC(C)(C)C1=O [Compound A-22] | 20 |
| Cc1ccc(-c2ccc(F)c(F)c2)cc1C1=C(O)C(C)(C)OC(C)(C)C1=O [Compound A-24] | 60 |
| Cc1ccc(-c2cc(F)cc(F)c2)cc1C1=C(O)C(C)(C)OC(C)(C)C1=O [Compound A-25] | 30 |
| Cc1ccc(-c2ccc(F)cc2F)cc1C1=C(O)C(C)(C)OC(C)(C)C1=O [Compound A-27] | 60 |
| Cc1ccc(-c2cc(F)c(F)c(F)c2)cc1C1=C(O)C(C)(C)OC(C)(C)C1=O [Compound A-31] | 0 |
